From article PMC7948455, “Novel drug discovery platform for spinocerebellar ataxia, using fluorescence technology targeting β-III-spectrin” (The Journal of Biological Chemistry, 2020) come the findings set out here.

Data set [1] deals with T1, ABD-L253P binding to actin (Homo sapiens, UniProt O15020, L253P).
T1 construct: the β-III-spectrin (human) ABD residues 1 to 284; His-SUMO (cleaved yes); made in house; host or cells: E. coli BL21(DE3), vector pE-SUMOpro; actin from rabbit psoas muscle tissue
Kind of data set: F-actin and ABD cosedimentation assay. The conditions noted are these: for Effect on ABD-L253P to actin cosedimentation: 10 μM Hit compound. As for the experimental part:
(§1) Actin was purified from acetone powder derived from the psoas muscle of New Zealand white rabbit (Oryctolagus cuniculus) ([46]). Filamentous (F)-actin was stored for up to 3 days on ice before use in binding assays. Within an hour of the binding assay, the F-actin was clarified at 100,000g at 4 °C for 10 min prior to setting up binding assays. The L253P β-III-spectrin ABD was expressed in E. coli BL21(DE3) (Novagen). The ABD was purified and the His-SUMO tag proteolytically removed, as previously described ([14]), except size-exclusion chromatography was not performed due to the high purity of the ABD protein. Lifeact-mCherry protein was similarly prepared. A Bradford assay was performed to determine clarified F-actin and ABD protein concentrations.
(§2) F-actin and ABD binding assays were performed as previously described ([10]). In brief, binding assays used 1 μM ABD protein, 1 μM F-actin, and 1 to 50 μM compound (as indicated) or DMSO control for a total reaction volume of 60 μl in F-buffer containing 10 mM Tris, pH 7.5, 150 mM NaCl, 0.5 mM ATP, 2 mM MgCl2, and 1 mM DTT. Following 30 min incubation at room temperature (21 °C). F-actin was pelleted using centrifugation at 100,000g at 25 °C for 30 min. Unbound ABD in the supernatant was measured following SDS-PAGE and Coomassie blue staining in accord ([10]). In addition, control cosedimentations assays that lacked actin were performed to test if compounds cause ABD aggregation. F-actin and Lifeact-mCherry binding assays were undertaken with 2 μM Lifeact-mCherry, 30 μM F-actin, and 1 to 50 μM compound (as indicated) or DMSO control for a total reaction volume of 80 μl in F-buffer. For a no-actin binding control, an assay sample with no F-actin was also set up. Binding reactions were allowed to reach equilibrium at room temperature (21 °C) for 30 min, and then F-actin was pelleted by centrifugation at 100,000g at 25 °C for 30 min. The amount of unbound Lifeact-mCherry was sampled by loading 7 μl of spin supernatant on a low-volume black bottom 384-well plate (Greiner). Amount of mCherry was determined by acquiring fluorescence spectrum peak intensity at ∼600 nm using a spectral unmixing plate reader (Fluorescence Innovations, Inc) equipped with a 532 nm laser (Laserglow Technologies, Ontario, Canada) for excitation, 532 nm long-pass filter for emission, and PMT for emission detection. The fraction of Lifeact-mCherry bound to F-actin was determined by subtracting from one the fraction of supernatant fluorescence intensity relative to the no-actin control sample:(3) Lifeactboundfraction=1−Fcompound/DMSO/FNo−actin where Fcontrol/DMSO is the peak mCherry fluorescence of assay samples containing compound or DMSO control, and Fno-actin is the peak mCherry fluorescence of assay samples that contained no F-actin.

A further data set deals with HEK293-6E cells. As to the kind of experiment: Trypan blue cell viability assay. Type of data set: cell-based. The procedure:
HEK293-6E cell viability was measured using trypan blue (0.03%) staining and a Countess Automated Cell counter (Invitrogen). Nontransfected HEK293-6E cells were spun at 100g for 5 min at 21 °C and resuspended in 10 ml of PBS. The centrifugation and resuspension were repeated twice more. Final cell concentration was 1 × 10^6 cells/ml. Cells were incubated with 2% DMSO or 3 to 50 μM compound (as indicated) for 3 h at room temperature (21 °C). After addition of 100 μl of 0.06% trypan blue solution in PBS, 10 μl was loaded on a slide and injected into the cell counter, and cell viability was measured.

Data set [2] has as its target T2, Lifeact-mCherry binding to actin (Oryctolagus cuniculus, UniProt P68135).
T2 construct: from tissue; host or cells: actin: rabbit psoas muscle; Lifeact-mCherry: made in house in E. coli (pE-SUMOpro)
Kind of data set: F-actin and Lifeact-mCherry cosedimentation assay. The procedure: as §1, §2

Data set [3] concerns GFP-ABD-L253P to mCherry nonspecific FRET. As to the kind of experiment: Counter-screen FRET assay (GFP-ABD-L253P + mCherry, nonspecific FRET) in HEK293-6E cells. It is filed as cell-based. The text has this: With a constant amount of GFP-ABD-L253P expressed, increased Lifeact-mCherry expression increases FRET with an exponential plateau to 0.12 (Fig. 2A). To measure the nonspecific component of our FRET readout, we concurrently tested expression of mCherry in place of Lifeact-mCherry. For comparison, the Lifeact-mCherry and mCherry fluorescence intensity values (normalized to 1:1 GFP-ABD:Lifeact-mCherry sample) are plotted on the X-axis for samples transfected with different donor-to-acceptor DNA ratios. […] With the trade-off between high FRET and minimal nonspecific FRET, the donor:acceptor ratio 1:2 was chosen for the experiments that followed (Fig. 2A). […]
At 2 × 10^6 cells/ml, HEK293-6E cells were transfected with GFP-ABD-L253P or GFP-ABD-WT (2.4 μg), Lifeact-mCherry (2.4–16.8 μg), mCherry (1.2–16.8 μg), and/or pTT5 (0.8–17.6 μg), as indicated, using the 293fectin protocol (Thermo Fisher Scientific) with 20 μg total DNA. […] Cell viability and concentration were determined using trypan blue assay and a Countess cell counter (Invitrogen). […]
Time-resolved fluorescence waveforms for each well were fitted based on a one-exponential decay function using least-squares minimization global-analysis software, as detailed previously ([32]). […]

Setting [4] is: 10 μM Hit compound, 3 h incubation.

T1 sequence (O15020 1-284 L253P): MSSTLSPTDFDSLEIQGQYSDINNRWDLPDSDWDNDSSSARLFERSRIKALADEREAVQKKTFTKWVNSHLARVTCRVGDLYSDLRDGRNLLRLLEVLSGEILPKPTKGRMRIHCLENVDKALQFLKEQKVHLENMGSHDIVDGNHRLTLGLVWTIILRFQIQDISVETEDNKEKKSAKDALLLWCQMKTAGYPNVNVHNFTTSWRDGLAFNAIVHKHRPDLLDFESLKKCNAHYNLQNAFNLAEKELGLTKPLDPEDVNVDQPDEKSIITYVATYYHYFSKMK

Regarding `CC(C)(C)c1ccc(/C=C/C(=O)Nc2ccc3c(c2)OCCO3)cc1` [AMG 9810], in data set [1], the “Effect on ABD-L253P to actin cosedimentation” value was “do not significantly alter”. The “Effect on HEK293-6E cell viability” value in the data set with HEK293-6E cells (setting [4]) is “do not significantly alter”.

As for `O=C(O)c1cc([N+](=O)[O-])ccc1NCCCc1ccccc1` [NPPB], in data set [1], the “Effect on ABD-L253P to actin cosedimentation” value is given as “do not significantly alter”. Besides, the “Effect on actin-Lifeact cosedimentation” value in data set [2] (10 μM Hit compound) was “decreased”. Besides, the “Effect on HEK293-6E cell viability” value in the data set on HEK293-6E cells (setting [4]) is recorded as “do not significantly alter”.

On to `CCOc1nc2cccc(C(=O)O)c2n1Cc1ccc(-c2ccccc2-c2nnn[nH]2)cc1` [candesartan], for which, in data set [1], the “Effect on ABD-L253P to actin cosedimentation” value was “do not significantly alter”. In addition, in the data set on HEK293-6E cells (setting [4]), the “Effect on HEK293-6E cell viability” value is given as “do not significantly alter”.

As to `CCCCCCCC/C=C\CCCCCCCC(=O)NCc1ccc(O)c(OC)c1` [olvanil], the “Effect on ABD-L253P to actin cosedimentation” value in data set [1] is “do not significantly alter”. Further, in the data set on HEK293-6E cells (setting [4]), the “Effect on HEK293-6E cell viability” value is “do not significantly alter”. For the same molecule, the “Effect of Hit compound on counter-screen FRET” value in data set [3] (dose response, GFP-ABD-L253P:mCherry 1:2 and 1:4) is given as “no significant effect”.

As for `CO[C@H]1C[C@H](CC[C@H](C)[C@H](O)[C@H](C)[C@H]2OC(=O)/C=C/C(C)=C/C[C@H](O)C[C@@H]3C=CC[C@@H](C[C@H](OC)[C@@H](C)[C@@H](O)C[C@@H](O)[C@H](C)[C@@H]([C@@H](C)[C@@H](O)[C@@H](C)CC[C@H]4C[C@H](OC)C[C@H](C)O4)OC(=O)/C=C/C(C)=C/C[C@H](O)C[C@@H]4C=CC[C@@H](C[C@H](OC)[C@@H](C)[C@@H](O)C[C@@H](O)[C@@H]2C)O4)O3)O[C@@H](C)C1` [swinholide A], the “Effect on ABD-L253P cosedimentation with actin” value in data set [1] (3 μM swinholide A, 50 μM tegaserod, n = 4) was “ablation”. Also, the “Effect on Lifeact-mCherry cosedimentation with actin” value in data set [2] (3 μM swinholide A, 50 μM tegaserod) is “reduces”. Further, the “Effect on HEK293-6E cell viability” value in the data set with HEK293-6E cells (3 μM swinholide A, 50 μM tegaserod, 3 h) is given as “did not significantly alter”. Moreover, the “Effect on counter-screen FRET readout” value in data set [3] (swinholide A 3 μM, tegaserod 50 μM, relative to DMSO) was “did not significantly alter”.
